Laboratory results published in patent US20060100263A1, “Antipyretic compositions and methods” (priority 2004, published 2006).
Counter-ions that a name gives are not always drawn. Marks after values point to notes of the source that are not given here.

Tests used:
[1] = yeast-induced pyresis model in rats; type: in vivo, rat
Experimental: (§1) Groups of 6 rats were injected subcutaneously with saline solution or 40% brewers' yeast 18 hours prior to oral administration of bicifadine HCl or aspirin. The yeast was suspended in 0.85% saline and doses in a volume of 10 ml/kg. Rectal temperatures were recorded with a YSI 43TA telethermometer just prior to oral drug administration, and hourly for 3-4 hours. The post-treatment temperatures were compared to the initial temperatures of each group. Control animals were treated with vehicle and tested concurrently. In FIG. 1, the solid line represents the mean rectal temperature of normal rats (99.5° F.) and the standard error of that measure (0.1° F.) is indicated by the dashed lines.
(§2) The results shown in FIG. 1 indicate that rats treated with brewers' yeast 18 hours prior to drug administration develop a febrile response, manifested as a mean rectal temperature of 101.1° F. In contrast, normal rats treated only with vehicle have a rectal temperature of 99.5° F., 1.6° F. lower than the yeast-treated rats.

[2] = average body temperature of normal rats; type: in vivo, rat; details: for Mean Rectal Temperature at Indicated Hours Post-Treatment: 100 mg/kg PO
Experimental: as §1, §2

[3] = oral temperature of normal human subjects; type: in vivo; details: 600 mg PO single dose; for Oral Temperature at Indicated Times of Treatment: normal humans
Experimental: Normal humans received either a placebo or 600 mg of bicifadine HCl (PO). Oral temperature readings were taken as part of an assessment of vital signs before and after administration of a single dose.
Oral temperature readings were taken as part of an assessment of vital signs before and after administration of a single dose of bicifadine to normal humans. The placebo group consisted of 150 subjects, while the bicifadine HCl group consisted of 151 individuals.

α1 adrenergic receptor = assay: [3H]prazosin binding, rat cerebral cortex preparation
Experimental: At the end of 60 min, the assay was terminated by vacuum filtration and the amount of radioactivity deposited on the filter measured by scintillation counting.

α2 adrenergic receptor = α2 adrenergic receptor binding
[4] = target: 5-HT2A serotonin receptor (Homo sapiens, UniProt P28223); assay: radioligand binding to 5-HT2A serotonin receptor
[5] = blood pressure in human subjects; type: in vivo
[6] = target: recombinant human cyclooxygenase1 (COX1) (Homo sapiens, UniProt P23219); assay: COX1 PGE2 synthesis assay; details: 0.1, 1, or 10 μM
Experimental: The assay mixture was incubated (10 min at 25° C. for COX1, 5 min-at 22° C. for COX2), then stopped and the amount of reaction product (PGE2) formed was measured by an enzyme-linked immunosorbent assay.

[7] = target: T1, recombinant human cyclooxygenase2 (COX2) (Homo sapiens, UniProt P35354); assay: COX2 PGE2 synthesis assay; details: 0.1, 1, or 10 μM
T1 sequence (P35354 18-604): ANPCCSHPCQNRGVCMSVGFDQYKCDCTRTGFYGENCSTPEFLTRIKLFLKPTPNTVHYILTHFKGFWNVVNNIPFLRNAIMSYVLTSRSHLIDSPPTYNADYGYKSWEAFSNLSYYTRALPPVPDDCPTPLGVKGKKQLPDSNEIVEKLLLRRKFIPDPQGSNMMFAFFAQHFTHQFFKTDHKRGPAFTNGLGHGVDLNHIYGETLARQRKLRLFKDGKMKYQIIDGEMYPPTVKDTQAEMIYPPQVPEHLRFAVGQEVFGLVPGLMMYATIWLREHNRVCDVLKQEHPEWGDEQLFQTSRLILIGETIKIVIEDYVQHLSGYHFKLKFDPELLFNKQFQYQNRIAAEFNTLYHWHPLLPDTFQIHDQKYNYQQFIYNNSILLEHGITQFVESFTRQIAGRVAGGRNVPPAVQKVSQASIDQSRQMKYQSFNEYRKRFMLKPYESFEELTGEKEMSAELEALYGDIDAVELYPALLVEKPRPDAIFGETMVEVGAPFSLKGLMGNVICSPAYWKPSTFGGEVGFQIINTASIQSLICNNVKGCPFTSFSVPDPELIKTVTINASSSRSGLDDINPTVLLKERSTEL
Experimental: This was determined in assays using the rate limiting enzyme for prostaglandin synthesis, recombinant human cyclooxygenasel (COX1) and cyclooxygenase2 (COX2) expressed in Sf9 cells using a modified technique of Glaser et al (1995). These cells were incubated with arachidonic acid as the substrate (4, and 2 μM, respectively) and 0.1, 1, or 10 μM concentrations of bicifadine HCl in a suitable assay buffer. The assay mixture was incubated (10 min at 25° C. for COX1, 5 min-at 22° C. for COX2), then stopped and the amount of reaction product (PGE2) formed was measured by an enzyme-linked immunosorbent assay.

Chain of 5-HT2A serotonin receptor (P28223 whole entry): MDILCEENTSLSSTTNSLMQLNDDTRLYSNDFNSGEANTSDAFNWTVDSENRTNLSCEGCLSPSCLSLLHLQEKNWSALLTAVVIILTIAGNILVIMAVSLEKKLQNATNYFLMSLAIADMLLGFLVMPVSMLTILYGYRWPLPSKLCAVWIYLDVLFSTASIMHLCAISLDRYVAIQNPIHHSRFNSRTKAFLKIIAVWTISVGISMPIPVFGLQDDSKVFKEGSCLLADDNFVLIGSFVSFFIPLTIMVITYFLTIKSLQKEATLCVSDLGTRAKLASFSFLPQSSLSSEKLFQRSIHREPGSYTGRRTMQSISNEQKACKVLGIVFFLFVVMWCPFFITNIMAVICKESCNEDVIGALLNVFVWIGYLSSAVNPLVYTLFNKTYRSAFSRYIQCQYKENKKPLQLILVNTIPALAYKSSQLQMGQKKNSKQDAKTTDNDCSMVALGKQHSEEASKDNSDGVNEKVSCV
Chain of recombinant human cyclooxygenase1 (COX1) (P23219 24-599): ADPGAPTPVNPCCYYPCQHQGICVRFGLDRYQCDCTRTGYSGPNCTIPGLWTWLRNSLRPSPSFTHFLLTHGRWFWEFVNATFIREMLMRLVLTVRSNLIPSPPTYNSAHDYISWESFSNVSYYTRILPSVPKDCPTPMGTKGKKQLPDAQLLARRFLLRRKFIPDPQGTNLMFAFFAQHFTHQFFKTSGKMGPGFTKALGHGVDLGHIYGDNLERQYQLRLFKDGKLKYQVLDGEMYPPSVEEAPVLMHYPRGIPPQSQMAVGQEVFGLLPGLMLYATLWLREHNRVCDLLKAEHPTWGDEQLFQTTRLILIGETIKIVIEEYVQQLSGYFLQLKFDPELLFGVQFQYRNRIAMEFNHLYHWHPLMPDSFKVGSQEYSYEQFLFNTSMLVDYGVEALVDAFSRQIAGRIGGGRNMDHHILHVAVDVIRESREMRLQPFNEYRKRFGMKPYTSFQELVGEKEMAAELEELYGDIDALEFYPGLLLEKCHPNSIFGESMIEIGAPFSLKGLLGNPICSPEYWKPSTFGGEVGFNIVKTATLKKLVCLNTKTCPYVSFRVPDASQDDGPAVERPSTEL

Cc1ccc([C@]23CNC[C@H]2C3)cc1 (racemic) [Bicifadine HCl, (±)-1-(4-methylphenyl)-3-azabicyclo[3.1.0]hexane hydrochloride]
rectal temperature of yeast-fevered rats ([1]; 50 mg/kg PO, by the first hour after administration, vs pre-treatment temperature): significantly reduced rectal temperature | duration of antipyretic effect ([1]; 100 mg/kg PO): 4 h | rectal temperature of yeast-fevered rats ([1]; 100 mg/kg PO, normal rat temperature 99.5 °F): decrease rectal temperature to levels at or below normal | antipyretic potency compared with aspirin ([1]; aspirin 200 mg/kg PO): more potent antipyretic than aspirin | effect on rectal temperature of normal rats (hypothermia) [2]: did not consistently lower the rectal temperature of normal rats | Mean Rectal Temperature at Indicated Hours Post-Treatment ([2]; 0 h): 98.9 ° F. | Mean Rectal Temperature at Indicated Hours Post-Treatment ([2]; 1 h): 97.9* ° F. | Mean Rectal Temperature at Indicated Hours Post-Treatment ([2]; 2 h): 98.3 ° F. | Mean Rectal Temperature at Indicated Hours Post-Treatment ([2]; 3 h): 98.2 ° F. | Mean Rectal Temperature at Indicated Hours Post-Treatment ([2]; 4 h): 97.5 ° F. | effect on normal human oral temperature (hypothermia) [3]: did not consistently lower normal human oral temperature | Oral Temperature at Indicated Times of Treatment ([3]; 0.5 hr): 98.1 ° F. | Oral Temperature at Indicated Times of Treatment ([3]; 1 hr): 98.1 ° F. | Oral Temperature at Indicated Times of Treatment ([3]; 2 hr): 98.1 ° F. | Oral Temperature at Indicated Times of Treatment ([3]; 3 hr): 98.0 ° F. | Oral Temperature at Indicated Times of Treatment ([3]; 4 hr): 98.1 ° F. | Oral Temperature at Indicated Times of Treatment ([3]; 5 hr): 98.2 ° F. | Oral Temperature at Indicated Times of Treatment ([3]; 6 hr): 98.2 ° F. | Oral Temperature at Indicated Times of Treatment ([3]; Follow-up): 97.8 ° F. | Oral Temperature at Indicated Times of Treatment ([3]; Pre-Dose): 98.1 ° F. | occupying binding sites on α1 adrenergic receptor (α1 adrenergic receptor): capable of occupying binding sites | Ki (α1 adrenergic receptor; 0.25 nM [3H]prazosin, 60 min at 22° C.): 1 µM | occupying binding sites on α2 adrenergic receptor (α2 adrenergic receptor): capable of occupying binding sites | inhibition of radioligand binding to 5-HT2A serotonin receptor [4]: significantly inhibited radioligand binding | alterations in blood pressure [5]: did not cause significant alterations in blood pressure | inhibitory effect on PGE2 synthesis by COX1 [6]: no significant inhibitory effect | inhibitory effect on PGE2 synthesis by COX2 [7]: no significant inhibitory effect
